Like-named read-outs stand apart in the source and are kept apart here.
Experiments:
[1] = biological target: T1, human SGLT1 (Homo sapiens, UniProt P13866); assay: SGLT1 in vitro assay: Na-dependent 14C-AMG uptake in CHO-K1 cells stably expressing human SGLT1; type: cell-based; conditions: for inhibition at 0.3 µM: read-out: SGLT1 % Inh @ 0.3 μM; for IC50: compounds of formula (I) where R0 is fluoro
T1 construct: expressed in transfected cells
T1 sequence (P13866 1-664): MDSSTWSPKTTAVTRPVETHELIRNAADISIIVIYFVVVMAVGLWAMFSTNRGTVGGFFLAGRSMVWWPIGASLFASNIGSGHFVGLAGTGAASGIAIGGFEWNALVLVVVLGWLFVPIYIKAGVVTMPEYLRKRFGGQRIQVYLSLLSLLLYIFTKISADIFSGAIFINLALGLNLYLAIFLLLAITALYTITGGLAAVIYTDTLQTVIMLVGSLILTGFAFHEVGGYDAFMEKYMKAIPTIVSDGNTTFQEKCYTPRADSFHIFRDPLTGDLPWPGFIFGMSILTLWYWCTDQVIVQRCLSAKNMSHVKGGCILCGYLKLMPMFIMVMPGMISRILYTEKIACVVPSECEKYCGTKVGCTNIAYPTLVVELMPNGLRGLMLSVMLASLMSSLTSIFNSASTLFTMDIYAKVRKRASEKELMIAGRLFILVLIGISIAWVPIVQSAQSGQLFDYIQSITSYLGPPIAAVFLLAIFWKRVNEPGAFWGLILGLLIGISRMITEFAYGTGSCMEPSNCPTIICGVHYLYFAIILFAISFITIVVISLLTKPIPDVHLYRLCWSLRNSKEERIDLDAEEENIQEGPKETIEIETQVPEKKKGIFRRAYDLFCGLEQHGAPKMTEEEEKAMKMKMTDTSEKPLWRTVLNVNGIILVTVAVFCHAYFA
Experimental: (§1) Biological Example 1: SGLT1 and SGLT2 In Vitro Assays
(§2) The ability of the compounds of formula (I) of the present invention to treat an SGLT-mediated condition was determined using the following procedures:
(§3) SGLT1 and SGLT2 were cloned in form of cDNA from human small intestine (Genbank M24847), and from human kidney (Genbank M95549), respectively. Subsequently, each full cDNA was subcloned into pcDNA with each construct's integrity verified through follow-on sequencing. To generate CHO-K1 cells that stably express human SGLT1 or human SGLT2, CHO-K1 cells were transfected using DMRIE-C reagent (Life Technologies, Gaithersburg, Md.). Transfected cells were then selected in the presence of 500 μg/ml of the Geneticin (G418 Cellgro Catalog No. 30234-CI)
(§4) Individual clones were then characterized using the following cell-based assay for sodium-dependent glucose transport:
(§5) Inhibition of SGLT1 and SGLT2 activity was assessed in CHO K1 cells stably expressing either human SGLT1 or SGLT2, using the SGLT specific glucose analog methyl-glucopyranoside (Sigma Catalog No. M-9376). Cells were plated (45,000 cells/well) in white wall 96-well plates (COSTAR, Cat #3903) for 24 hours in growth medium, then a final concentration of 10 mM Na-Butyrate (ALDRICH Cat #30341-0) was added. The cells were incubated for 24 hours. On the day of the assay, cells were rinsed and treated with test compounds (at concentrations of 0.001 μM to 10 μM) in assay buffer (50 mM HEPES, 20 mM Tris base, 5 mM KCl, 1 mM MgCl2, 1 mM CaCl2 and 137 mM NaCl, pH 7.4) for 10 minutes. Cells were then incubated with ^14C-a-methyl-d-glucopyranoside (AMG, Amersham Catalog No. CFB 76), using 0.07 μCi per well in 500 µM AMG final concentration. The cells were incubated for 2 hours at 37° C. with 5% CO2 and washed two times with ice-cold Phosphate Buffer Solution (CELLGRO Catalog No. 21030-CV). The cells were then solubilized by adding 60 μl of MICROSCINT™ 20 and the Na-dependent ^14C-AMG uptake was quantified by measuring radioactivity. Plates were counted in a TopCount (Packard, Meriden, Conn.)
(§6) Representative compounds of the present invention were tested according to the procedures as described in Biological Example 1 and 2 above, with results as listed in Table 5, below. Results are reported as the %-inhibition or IC50 value. Variability for the functional assay was typically within 20%.

[2] = biological target: T2, human SGLT2 (Homo sapiens, UniProt P31639); assay: SGLT2 in vitro assay: Na-dependent 14C-AMG uptake in CHO-K1 cells stably expressing human SGLT2; type: cell-based; conditions: for inhibition at 0.3 µM: read-out: SGLT2 % Inh @ 0.3 μM; for IC50: compounds of formula (I) where R0 is fluoro
T2 construct: expressed in transfected cells
T2 sequence (P31639 1-672): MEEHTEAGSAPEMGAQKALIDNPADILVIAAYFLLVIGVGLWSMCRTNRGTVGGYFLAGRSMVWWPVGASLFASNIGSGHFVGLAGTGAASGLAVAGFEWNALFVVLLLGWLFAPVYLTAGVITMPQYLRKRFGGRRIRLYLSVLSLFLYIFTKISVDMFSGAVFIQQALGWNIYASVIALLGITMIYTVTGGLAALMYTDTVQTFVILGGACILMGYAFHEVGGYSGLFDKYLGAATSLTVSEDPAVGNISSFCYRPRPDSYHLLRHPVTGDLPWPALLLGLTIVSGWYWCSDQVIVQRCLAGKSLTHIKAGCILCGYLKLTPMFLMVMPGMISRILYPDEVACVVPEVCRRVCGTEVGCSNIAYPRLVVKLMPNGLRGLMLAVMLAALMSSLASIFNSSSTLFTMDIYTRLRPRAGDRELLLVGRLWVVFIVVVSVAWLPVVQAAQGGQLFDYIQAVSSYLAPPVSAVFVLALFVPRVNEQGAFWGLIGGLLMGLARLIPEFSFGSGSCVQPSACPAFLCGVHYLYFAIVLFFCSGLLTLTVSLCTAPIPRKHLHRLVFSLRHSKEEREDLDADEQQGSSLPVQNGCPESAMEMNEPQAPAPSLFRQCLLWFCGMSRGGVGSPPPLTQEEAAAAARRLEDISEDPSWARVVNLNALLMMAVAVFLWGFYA
Experimental: as §1, §2, §3, §4, §5, §6

[3] = @ 0.3 μM, CHO-K1 cells stably expressing human SGLT1, 14C-AMG uptake
[4] = CHO-K1 cells stably expressing human SGLT1, 14C-AMG uptake
[5] = @ 0.3 μM, CHO-K1 cells stably expressing human SGLT2, 14C-AMG uptake
[6] = CHO-K1 cells stably expressing human SGLT2, 14C-AMG uptake

| Structure (SMILES) | inhibition at 0.3 µM [1, 3] [%] | IC50 [1, 4] [nM] | inhibition at 0.3 µM [2, 5] [%] | IC50 [2, 6] [nM] | SGLT1 % Inh @ 0.3 μM [1, 3] [%] | SGLT2 % Inh @ 0.3 μM [2, 5] [%] | inhibition at 0.3 µM ([1]; 0.3 μM, CHO-K1 cells expressing human SGLT1) [%] | inhibition at 0.3 µM ([2]; 0.3 μM, CHO-K1 cells expressing human SGLT2) [%] |
| --- | --- | --- | --- | --- | --- | --- | --- | --- |
| COc1cc(O)c([C@@H]2O[C@H](CO)C(F)(F)[C@H](O)[C@H]2O)cc1Cc1ccc(OCF)cc1 [Compound 142] | 62.6 | 234 | 69.4 | 3 | – | – | – | – |
| CCc1ccc(Cc2cc([C@@H]3O[C@H](CO)C(F)(F)[C@H](O)[C@H]3O)c(OC)c3c2OCC3)cc1 [Compound 38] | – | – | – | – | 47.4 | 65.9 | – | – |
| COc1cc(O)c([C@@H]2O[C@H](CO)[C@@](C)(F)[C@H](O)[C@H]2O)cc1Cc1ccc2c(c1)CCCO2 [Compound 2, (2S,3R,4R,5S,6R)-2-[5-(chroman-6-ylmethyl)-2-hydroxy-4-methoxy-phenyl]-5-fluoro-6-(hydroxymethyl)-5-methyl-tetrahydropyran-3,4-diol] | – | – | – | – | – | – | 31.1 | 67.4 |
| COc1ccc(Cc2cc([C@@H]3O[C@H](CO)C(F)(F)[C@H](O)[C@H]3O)c(OC)cc2OC)cc1 [Compound 92] | – | – | – | – | 30.2 | 81.9 | – | – |
| CCc1ccc(Cc2cc([C@@H]3O[C@H](CO)C(F)(F)[C@H](O)[C@H]3O)c(OC)cc2CC)cc1 [Compound 130] | – | – | – | – | 22.9 | 83.7 | – | – |
| CCc1cc(O)c([C@@H]2O[C@H](CO)C(F)(F)[C@H](O)[C@H]2O)cc1Cc1ccc(OCF)cc1 [Compound 148] | 83 | 53 | 82.4 | 1.5 | – | – | – | – |
| OC[C@H]1O[C@@H](c2cc(Cc3ccc(OCF)cc3)c(C3CC3)cc2O)[C@H](O)[C@@H](O)C1(F)F [Compound 143] | – | – | – | – | 72.3 | 62.9 | – | – |
| N#CCOc1cc(Cl)c(Cc2cc3ccccc3s2)cc1[C@@H]1O[C@H](CO)C(F)(F)[C@H](O)[C@H]1O [Compound 51] | – | – | – | – | 30.8 | 82.0 | – | – |
| CCc1ccc(Cc2cc([C@@H]3O[C@H](CO)C(F)(F)[C@H](O)[C@H]3O)c(OC)cc2C)cc1 [Compound 129] | – | – | – | – | 16.4 | 87.1 | – | – |
| COc1cc(Cl)c(Cc2ccc(OC(F)(F)F)cc2)cc1[C@@H]1O[C@H](CO)C(F)(F)[C@H](O)[C@H]1O [Compound 106] | – | – | – | – | 29.5 | 92.5 | – | – |
| CCc1ccc(Cc2cc([C@@H]3O[C@H](CO)C(F)(F)[C@H](O)[C@H]3O)c(O)cc2OC)cc1 [Compound 145] | 78.1 | 83 | 64.4 | 2.8 | – | – | – | – |
| Cc1ccc([C@@H]2O[C@H](CO)C(F)(F)[C@H](O)[C@H]2O)cc1Cc1cc2c(s1)CCN(C(=O)c1nccs1)C2 [Compound 79] | – | – | – | – | 20.3 | 63.6 | – | – |
| Cc1cc(O)c([C@@H]2O[C@H](CO)C(F)(F)[C@H](O)[C@H]2O)cc1Cc1cc2c(s1)CCN(C(=O)C1CCCC1)C2 [Compound 69] | – | – | – | – | 64.0 | 67.1 | – | – |
| OC[C@H]1O[C@@H](c2cc(Cc3ccc4c(c3)SCCO4)c(Cl)c3c2OCC3)[C@H](O)[C@@H](O)C1(F)F [Compound 132] | 40.7 | 422 | 83.9 | 4.5 | – | – | – | – |
| OC[C@H]1O[C@@H](c2cc(Cc3ccc4c(c3)OCCO4)c3c(c2O)OCC3)[C@H](O)[C@@H](O)C1(F)F [Compound 187] | 52.7 | 160 | 74.6 | 35.9 | – | – | – | – |
| COc1c(Cc2ccc3c(c2)CCCO3)cc([C@@H]2O[C@H](CO)C(F)(F)[C@H](O)[C@H]2O)c2c1CCO2 [Compound 93] | – | – | – | – | 34.5 | 80.4 | – | – |
| CN(C)c1ccc(Cc2cc([C@@H]3O[C@H](CO)C(F)(F)[C@H](O)[C@H]3O)cc3c2OCC3)cc1 [Compound 179] | – | – | – | – | 24.9 | 62.1 | – | – |
| Cc1c(Cc2cc3ccccc3s2)cc([C@@H]2O[C@H](CO)C(F)(F)[C@H](O)[C@H]2O)c(O)c1C [Compound 60, (2S,3R,4R,6R)-2-(5-(benzo[b]thiophen-2-ylmethyl)-2-hydroxy-3,4-dimethylphenyl)-5,5-difluoro-6-(hydroxymethyl)tetrahydro-2H-pyran-3,4-diol] | 83.4 | 88 | 91.1 | 12.2 | – | – | – | – |
| CCc1cc(OC)c([C@@H]2O[C@H](CO)C(F)(F)[C@H](O)[C@H]2O)cc1Cc1ccc(OC)cc1 [Compound 89, (2S,3R,4R,6R)-2-[4-ethyl-2-methoxy-5-[(4-methoxyphenyl)methyl]phenyl]-5,5-difluoro-6-(hydroxymethyl)tetrahydropyran-3,4-diol] | 48.1 | 636 | 87.7 | 4.7 | – | – | – | – |
| Cc1cnc(C(=O)N2CCc3sc(Cc4cc([C@@H]5O[C@H](CO)C(F)(F)[C@H](O)[C@H]5O)c(O)cc4C)cc3C2)s1 [Compound 83] | 43.3 | 449 | 85.4 | 9.7 | – | – | – | – |
| Cc1cc(O)c([C@@H]2O[C@H](CO)C(F)(F)[C@H](O)[C@H]2O)cc1Cc1cc2cc(F)ccc2s1 [Compound 52] | 41.3 | 229 | 81.2 | 19 | – | – | – | – |
| COc1cc(OC)c([C@@H]2O[C@H](CO)C(F)(F)[C@H](O)[C@H]2O)cc1Cc1ccc2c(c1)OCCO2 [Compound 55, (2S,3R,4R,6R)-2-[5-(2,3-dihydro-1,4-benzodioxin-6-ylmethyl)-2,4-dimethoxy-phenyl]-5,5-difluoro-6-(hydroxymethyl)tetrahydropyran-3,4-diol] | 15.8 | – | 84.2 | – | – | – | – | – |
| Cc1cc(O)c([C@@H]2O[C@H](CO)C(F)(F)[C@H](O)[C@H]2O)cc1Cc1ccc(OCF)cc1 [Compound 133] | 67.7 | 153 | 90.6 | 1.3 | – | – | – | – |

Source: patent publication US20210238170A1, “5,5-Difluoro- and 5-Fluoro-5-Methyl-C-Glycoside Derivatives Useful As Dual SGLT1 / SGLT2 Modulators” (Janssen Pharmaceutica NV, priority 2018, published 2021)
